Measured values from US10829796B2, “Bacteria identification and antimicrobial susceptibility test” (priority 2015, dated 2020).

System: bacteria in clinical bovine mastitis milk samples
Experiment: Combined bacteria identification and antimicrobial susceptibility test (colour of wells, MIC) on clinical bovine mastitis milk samples
Assay type: cell-based
Method: Clinical bovine mastitis milk samples were collected by a vet clinic in South Island, New Zealand. Samples were stored in the freezer for several months and shipped frozen to the testing facility. In this Example, the term “clinical” means that dairy cows had clinical symptoms of an udder infection e.g. cow behaved unusual, milk clots, swollen udder among other typical symptoms. Testing was executed in microwell plate comprising of 24 wells (3×8 wells).
In addition, 20 ul of clinical mastitis sample was added to each well with a laboratory pipette.
Abbreviations • 1. 80 ul GC+10 ul Tell: 80 ul Giolitti Cantoni base broth+10 ul Tellurite solution (1%); • 2. 80 ul TSB/Esc/Fer Cit: 80 ul Tryptic soy broth containing 0.25% Esculin and 0.125% Ammonium Ferric Citrate; • 3. 80 ul TSB/Esc/Fer Cit+10 ul Genta: 80 ul Tryptic soy broth containing 0.25% Esculin and 0.125% Ammonium Ferric Citrate+10 ul of Gentamycin solution 10 mg/ml; • 4. 80 ul McC/PR25: 80 ul MacConkey broth (single strength) containing 0.0125% phenol red; and • 5. 80 ul TSB/PR25: 80 ul Tryptic soy broth containing 0.0125% phenol red. Bacteria Identification
Columns A to C and rows 1 and 2 were used for bacteria identification. A1: coagulase positive Staph; A2: Staphylococci; B1: Strep group D; B2: Strep group D; C1: general enrichment media (gram+ and gram-bacteria); C2: coliform bacteria.
Column A3 to A8: serial dilution of benzyl penicillin as potassium. Column B3 to B8: serial dilution of ceftiofur as hydrochloride. Column C3 to C8: serial dilution of cloxacillin as sodium. Antibiotic concentrations are listed as free form ranging between 4 ug/ml to 0.05 ug/ml.
Minimum inhibitory substance concentration (MIC) is here defined as the concentration if a colour change occurs between two wells (one well remains red with drug concentration 1, the other one yellow with drug concentration 2, whereas drug concentration 1 is larger than drug concentration 2) then the MIC is the value of drug concentration 1.
Table 21 indicates the microwell plate configuration #1; Drugs: Benzylpenicillin as potassium; Cloxacillin as sodium; Ceftiofur as hydrochloride; Drug concentration in each well (A3 to C8) is based on 80 μl composition+10 μl drug solution+20 μl clinical mastitis milk sample and equivalent to listed drug concentration in μg/ml; 20 ul of clinical bovine mastitis milk sample was added to each well (A1 to C8).
In addition, each well received one drop of clinical sample from a transfer pipette which was on average about 35 mg. This was determined through weighing the well plate prior and after the addition of clinical mastitis samples. This weight was then divided by 24.
• 1. 80 ul GC+10 ul Tell: 80 ul Giolitti Cantoni base broth+10 ul Tellurite solution (1%); • 2. 80 ul TSB/Esc/Fer Cit: 80 ul Tryptic soy broth containing 0.25% Esculin and 0.125% Ammonium Ferric Citrate; • 3. 80 ul TSB/Esc/Fer Cit+10 ul Genta: 80 ul Tryptic soy broth containing 0.25% Esculin and 0.125% Ammonium Ferric Citrate+10 ul of Gentamycin solution 10 mg/ml; • 4. 80 ul McC/PR25: 80 ul MacConkey broth (single strength) containing 0.0125% phenol red; and • 5. 80 ul TSB/PR25: 80 ul Tryptic soy broth containing 0.0125% phenol red.
Columns A to C and rows 1 and 2 were used for bacteria identification. A1: coagulase positive Staph; A2: Staphylococci; B1: Strep Group D; B2: -; C1: general enrichment media (gram+ and gram-); C2: coliform bacteria.
Column A3 to A8: serial dilution of benzyl penicillin as potassium. Drug concentrations given as free form ranging between 4 ug/ml to 0.05 ug/ml. Column B3 to B8: serial dilution of ceftiofur as hydrochloride. Drug concentrations given as free form ranging between 4 ug/ml to 0.05 ug/ml. Column C3 to C8: serial dilution of cloxacillin as sodium. Drug concentrations given as free form ranging between 4 ug/ml to 0.05 ug/ml.

## CC1(C)S[C@@H]2[C@H](NC(=O)Cc3ccccc3)C(=O)N2[C@H]1C(=O)O [benzyl penicillin]
ID 5 to 8, T = 0 h (prior incubation, reference), plate configuration #2, drug 1 μg/ml
  Colour of media in each well: red
ID 5 to 8, T = 0 h (prior incubation, reference), plate configuration #2, drug 2 μg/ml
  Colour of media in each well: red
ID 5 to 8, T = 0 h (prior incubation, reference), plate configuration #2, drug 4 μg/ml
  Colour of media in each well: red
ID 6, T = 23h, 37° C., plate configuration #2, drug 0.05 μg/ml (Table 31)
  Colour of media in each well: yellow
ID 6, T = 23h, 37° C., plate configuration #2, drug 0.1 μg/ml (Table 31)
  Colour of media in each well: yellow
ID 6, T = 23h, 37° C., plate configuration #2, drug 0.5 μg/ml (Table 31)
  Colour of media in each well: yellow
ID 6, T = 23h, 37° C., plate configuration #2, drug 1 μg/ml (Table 31)
  Colour of media in each well: yellow
ID 6, T = 23h, 37° C., plate configuration #2, drug 2 μg/ml (Table 31)
  Colour of media in each well: yellow
ID 6, T = 23h, 37° C., plate configuration #2, drug 4 μg/ml (Table 31)
  Colour of media in each well: yellow
ID 6, T~7 h, 37° C., plate configuration #2, Table 35, drug 0.05 μg/ml
  Colour of media in each well: yellow
ID 6, T~7 h, 37° C., plate configuration #2, Table 35, drug 0.1 μg/ml
  Colour of media in each well: yellow
ID 6, T~7 h, 37° C., plate configuration #2, Table 35, drug 0.5 μg/ml
  Colour of media in each well: yellow
ID 6, T~7 h, 37° C., plate configuration #2, Table 35, drug 1 μg/ml
  Colour of media in each well: yellow
ID 6, T~7 h, 37° C., plate configuration #2, Table 35, drug 2 μg/ml
  Colour of media in each well: yellow
ID 6, T~7 h, 37° C., plate configuration #2, Table 35, drug 4 μg/ml
  Colour of media in each well: yellow
ID 6, T~11 h, 37° C., plate configuration #2, Table 35, drug 0.05 μg/ml
  Colour of media in each well: yellow
ID 6, T~11 h, 37° C., plate configuration #2, Table 35, drug 0.1 μg/ml
  Colour of media in each well: yellow
ID 6, T~11 h, 37° C., plate configuration #2, Table 35, drug 0.5 μg/ml
  Colour of media in each well: yellow
ID 6, T~11 h, 37° C., plate configuration #2, Table 35, drug 1 μg/ml
  Colour of media in each well: yellow
ID 6, T~11 h, 37° C., plate configuration #2, Table 35, drug 2 μg/ml
  Colour of media in each well: yellow
ID 6, T~11 h, 37° C., plate configuration #2, Table 35, drug 4 μg/ml
  Colour of media in each well: yellow
ID 6, T~23 h, 37° C., plate configuration #2, Table 35, drug 0.05 μg/ml
  Colour of media in each well: yellow
ID 6, T~23 h, 37° C., plate configuration #2, Table 35, drug 0.1 μg/ml
  Colour of media in each well: yellow
ID 6, T~23 h, 37° C., plate configuration #2, Table 35, drug 0.5 μg/ml
  Colour of media in each well: yellow
ID 6, T~23 h, 37° C., plate configuration #2, Table 35, drug 1 μg/ml
  Colour of media in each well: yellow
ID 6, T~23 h, 37° C., plate configuration #2, Table 35, drug 2 μg/ml
  Colour of media in each well: yellow
ID 6, T~23 h, 37° C., plate configuration #2, Table 35, drug 4 μg/ml
  Colour of media in each well: yellow
ID 7, T = 23h, 37° C., plate configuration #2, drug 0.05 μg/ml
  Colour of media in each well: yellow
ID 7, T = 23h, 37° C., plate configuration #2, drug 0.1 μg/ml
  Colour of media in each well: yellow
ID 7, T = 23h, 37° C., plate configuration #2, drug 0.5 μg/ml
  Colour of media in each well: red
ID 7, T = 23h, 37° C., plate configuration #2, drug 1 μg/ml
  Colour of media in each well: red
ID 7, T = 23h, 37° C., plate configuration #2, drug 2 μg/ml
  Colour of media in each well: red
ID 7, T = 23h, 37° C., plate configuration #2, drug 4 μg/ml
  Colour of media in each well: red
ID 8, T = 23 h, 37° C., plate configuration #2, drug 0.05 μg/ml
  Colour of media in each well: red
ID 8, T = 23 h, 37° C., plate configuration #2, drug 0.1 μg/ml
  Colour of media in each well: red
ID 8, T = 23 h, 37° C., plate configuration #2, drug 0.5 μg/ml
  Colour of media in each well: red
ID 8, T = 23 h, 37° C., plate configuration #2, drug 1 μg/ml
  Colour of media in each well: red
ID 8, T = 23 h, 37° C., plate configuration #2, drug 2 μg/ml
  Colour of media in each well: red
ID 8, T = 23 h, 37° C., plate configuration #2, drug 4 μg/ml
  Colour of media in each well: red
Table 24, sample ID 2, 22 hours at 37° C., plate configuration #1, row 3 of serial dilution 4 ug/ml to 0.05 ug/ml
  Colour of media in each well: orange
Table 24, sample ID 2, 22 hours at 37° C., plate configuration #1, row 4 of serial dilution 4 ug/ml to 0.05 ug/ml
  Colour of media in each well: orange
Table 24, sample ID 2, 22 hours at 37° C., plate configuration #1, row 5 of serial dilution 4 ug/ml to 0.05 ug/ml
  Colour of media in each well: orange
Table 24, sample ID 2, 22 hours at 37° C., plate configuration #1, row 6 of serial dilution 4 ug/ml to 0.05 ug/ml
  Colour of media in each well: yellow
Table 24, sample ID 2, 22 hours at 37° C., plate configuration #1, row 7 of serial dilution 4 ug/ml to 0.05 ug/ml
  Colour of media in each well: yellow
Table 24, sample ID 2, 22 hours at 37° C., plate configuration #1, row 8 of serial dilution 4 ug/ml to 0.05 ug/ml
  Colour of media in each well: yellow
Clinical sample ID 1 (streptococci group D), 37° C. for 22 hours, plate configuration #1
  MIC: 0.1 µg/mL
Clinical sample ID 2 (streptococci group D, also coagulase positive Staph), 37° C. for 22 hours, plate configuration #1
  MIC: > 4 µg/mL
Clinical sample ID 4 (coagulase positive Staph), 37° C. for 22 hours, plate configuration #1
  MIC: > 4 µg/mL
Clinical sample ID 5 (streptococci group D), 37° C. for 23 hours, plate configuration #2
  MIC: < 0.05 µg/mL
Clinical sample ID 7 (coagulase positive Staph), 37° C. for 23 hours, plate configuration #2
  MIC: 0.5 µg/mL
Clinical sample ID 8 (coagulase negative Staph and Streptococci group D), 37° C. for 23 hours, plate configuration #2
  MIC: < 0.05 µg/mL
